The source of these data is patent US20240336654A1, “ANTIMICROBIAL PEPTIDOMIMETICS” (SPEXIS AG, priority 2021, published 2024).

Assay type in all cases: cell-based
The subject of data set [1] is Escherichia coli ATCC 25922. As to conditions: ATCC 25922. The procedure, abridged:
(§1)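 MICs were determined by CLSI broth microdilution in cation-adjusted Mueller-Hinton II broth with about 5×10^5 CFU/mL inoculum. Peptides were tested in two-fold serial dilutions with 0.002% polysorbate 80 final. MIC in μg/mL is the lowest concentration with no visible growth after 18-20 h at 35 °C.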

The subject of data set [2] is Klebsiella pneumoniae SSI3010. The note with it: SSI3010. The gist of the method: as §1
Data set [3] has as its system Escherichia coli MCR-1 Af 45. As to conditions: MCR-1 Af 45. The gist of the method:
as §1

For data set [4], the system named is human red blood cells (hRBC). The note with it: red cells of human, 1 h, 200 μg/mL. The gist of the method:
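Peptides at 200 μg/mL incubated 1 h at 37 °C with 20% (v/v) washed human RBC, shaking. Hemolysis from supernatant OD540, expressed as percent of 2.5% Triton X-100 lysis, with PBS as 0%.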

Where a SMILES comes first, the peptide text is derived from it. Bridges are numbered along the chain shown (N, C = ends). [ ]: non-standard residue; d: D form. Hyp = O=C(O)[C@@H]1C[C@@H](O)CN1; Cit = NC(=O)NCCC[C@H](N)C(=O)O; Agb = N=C(N)NCC[C@H](N)C(=O)O; Pen = CC(C)(S)[C@H](N)C(=O)O; dDab = NCC[C@@H](N)C(=O)O; Dab = NCC[C@H](N)C(=O)O

Consider `CC[C@H](C)[C@@H]1NC(=O)[C@H](CO)NC(=O)[C@H](Cc2ccc(O)cc2)NC(=O)[C@@H](NC(=O)[C@@H](NC(=O)[C@@H]2C[C@@H](O)CN2C(=O)[C@@H](N)C(C)C)[C@@H](C)CC)C(C)(C)SSC[C@@H](C(=O)N[C@@H](Cc2ccc(O)cc2)C(=O)O)NC(=O)[C@H](CCN)NC(=O)[C@H](CCN)NC(=O)[C@H](CCCCN)NC(=O)[C@@H](CCN)NC(=O)[C@H]([C@@H](C)O)NC(=O)[C@H](CCN)NC(=O)[C@H](CCCNC(=N)N)NC1=O` [Example 21, Val-Hyp-Ile-Pen-Tyr-Ser-Ile-Arg-Dab-Thr-^DDab-Lys-Dab-Dab-Cys-Tyr] (H-V[Hyp]I[Pen]YSIR[Dab]T[dDab]K[Dab][Dab]CY-OH; disulfide 4-15), for which, in data set [1], the “Escherichia coli ATCC 25922 MIC” value came out at 0.0625 µg/mL. The “Klebsiella pneumoniae SSI3010 MIC” value in data set [2] amounted to 0.125 µg/mL. Moreover, the “Escherichia coli MCR-1 Af45 MIC” value in data set [3] is 0.0625 µg/mL. Also, in data set [4], the “Hemolysis at 0.2 g/L” value is recorded as below 1%.

Regarding `CC[C@H](C)[C@H](NC(=O)[C@@H]1C[C@@H](O)CN1C(=O)[C@@H](N)C(C)C)C(=O)N[C@@H]1C(=O)N[C@@H](Cc2ccc(O)cc2)C(=O)N[C@@H](CO)C(=O)N[C@@H](CCC(=O)O)C(=O)N[C@@H](CCCNC(=N)N)C(=O)N[C@@H](CCN)C(=O)N[C@@H]([C@@H](C)O)C(=O)N[C@H](CCN)C(=O)N[C@@H](CCCCN)C(=O)N[C@@H](CCN)C(=O)N[C@@H](CCN)C(=O)N[C@H](C(=O)N[C@@H](Cc2ccc(O)cc2)C(=O)O)CSSC1(C)C` [Example 22, Val-Hyp-Ile-Pen-Tyr-Ser-Glu-Arg-Dab-Thr-^DDab-Lys-Dab-Dab-Cys-Tyr] (H-V[Hyp]I[Pen]YSER[Dab]T[dDab]K[Dab][Dab]CY-OH; disulfide 4-15), the “Escherichia coli ATCC 25922 MIC” value in data set [1] worked out at 0.5 µg/mL. The “Klebsiella pneumoniae SSI3010 MIC” value in data set [2] amounted to 0.5 µg/mL. In data set [3], the “Escherichia coli MCR-1 Af45 MIC” value is 0.25 µg/mL. Besides, in data set [4], the “Hemolysis at 0.2 g/L” value is below 1%.

For `CC[C@H](C)[C@H](NC(=O)[C@@H]1C[C@@H](O)CN1C(=O)[C@@H](N)C(C)C)C(=O)N[C@@H]1C(=O)N[C@@H](Cc2ccc(O)cc2)C(=O)N[C@@H](CO)C(=O)N[C@@H](CC(=O)O)C(=O)N[C@@H](CCCNC(=N)N)C(=O)N[C@@H](CCN)C(=O)N[C@@H]([C@@H](C)O)C(=O)N[C@H](CCN)C(=O)N[C@@H](CCCCN)C(=O)N[C@@H](CCN)C(=O)N[C@@H](CCN)C(=O)N[C@H](C(=O)N[C@@H](Cc2ccc(O)cc2)C(=O)O)CSSC1(C)C` [Example 23, Val-Hyp-Ile-Pen-Tyr-Ser-Asp-Arg-Dab-Thr-^DDab-Lys-Dab-Dab-Cys-Tyr] (H-V[Hyp]I[Pen]YSDR[Dab]T[dDab]K[Dab][Dab]CY-OH; disulfide 4-15; N-terminus assumed), the “Escherichia coli ATCC 25922 MIC” value in data set [1] came to 0.5 µg/mL. Moreover, the “Klebsiella pneumoniae SSI3010 MIC” value in data set [2] came to 0.5 µg/mL. Besides, the “Escherichia coli MCR-1 Af45 MIC” value in data set [3] amounted to 0.25 µg/mL. The “Hemolysis at 0.2 g/L” value in data set [4] is given as below 1%.

For the molecule `CC[C@H](C)[C@H](NC(=O)[C@@H]1C[C@@H](O)CN1C(=O)[C@@H](N)C(C)C)C(=O)N[C@@H]1C(=O)N[C@@H](Cc2ccc(O)cc2)C(=O)N[C@@H](CO)C(=O)N[C@@H](CO)C(=O)N[C@@H](CCCNC(=N)N)C(=O)N[C@@H](CCN)C(=O)N[C@@H]([C@@H](C)O)C(=O)N[C@H](CCN)C(=O)N[C@@H](CCCCN)C(=O)N[C@@H](CCN)C(=O)N[C@@H](CCN)C(=O)N[C@H](C(=O)N[C@@H](Cc2ccc(O)cc2)C(=O)O)CSSC1(C)C` [Example 24, Val-Hyp-Ile-Pen-Tyr-Ser-Ser-Arg-Dab-Thr-^DDab-Lys-Dab-Dab-Cys-Tyr] (H-V[Hyp]I[Pen]YSSR[Dab]T[dDab]K[Dab][Dab]CY-OH; disulfide 4-15), the “Escherichia coli ATCC 25922 MIC” value in data set [1] is 0.125 µg/mL. In data set [2], the “Klebsiella pneumoniae SSI3010 MIC” value was found to be 0.25 µg/mL. Besides, in data set [3], the “Escherichia coli MCR-1 Af45 MIC” value came out at 0.125 µg/mL. In addition, the “Hemolysis at 0.2 g/L” value in data set [4] is below 1%.

Consider `CC[C@H](C)[C@H](NC(=O)[C@@H]1C[C@@H](O)CN1C(=O)[C@@H](N)C(C)C)C(=O)N[C@@H]1C(=O)N[C@@H](Cc2ccc(O)cc2)C(=O)N[C@@H](CO)C(=O)N[C@@H](CC(N)=O)C(=O)N[C@@H](CCCNC(=N)N)C(=O)N[C@@H](C)C(=O)N[C@@H]([C@@H](C)O)C(=O)N[C@H](CCN)C(=O)N[C@@H](CCCCN)C(=O)N[C@@H](CCN)C(=O)N[C@@H](CCN)C(=O)N[C@H](C(=O)N[C@@H](Cc2ccc(O)cc2)C(=O)O)CSSC1(C)C` [Example 25, Val-Hyp-Ile-Pen-Tyr-Ser-Asn-Arg-Ala-Thr-^DDab-Lys-Dab-Dab-Cys-Tyr] (H-V[Hyp]I[Pen]YSNRAT[dDab]K[Dab][Dab]CY-OH; disulfide 4-15), for which, in data set [1], the “Escherichia coli ATCC 25922 MIC” value came to 0.5 µg/mL. For the same molecule, the “Klebsiella pneumoniae SSI3010 MIC” value in data set [2] came to 1 µg/mL. Moreover, the “Escherichia coli MCR-1 Af45 MIC” value in data set [3] came to 0.5 µg/mL. Further, the “Hemolysis at 0.2 g/L” value in data set [4] is recorded as below 1%.

With `CC[C@H](C)[C@H](NC(=O)[C@@H]1C[C@@H](O)CN1C(=O)[C@@H](N)C(C)C)C(=O)N[C@@H]1C(=O)N[C@@H](Cc2ccc(O)cc2)C(=O)N[C@@H](CO)C(=O)N[C@@H](CC(N)=O)C(=O)N[C@@H](CCCNC(=N)N)C(=O)N[C@H](CCN)C(=O)N[C@@H]([C@@H](C)O)C(=O)N[C@H](CCN)C(=O)N[C@@H](CCCCN)C(=O)N[C@@H](CCN)C(=O)N[C@@H](CCN)C(=O)N[C@H](C(=O)N[C@@H](Cc2ccc(O)cc2)C(=O)O)CSSC1(C)C` [Example 26, Val-Hyp-Ile-Pen-Tyr-Ser-Asn-Arg-^DDab-Thr-^DDab-Lys-Dab-Dab-Cys-Tyr] (H-V[Hyp]I[Pen]YSNR[dDab]T[dDab]K[Dab][Dab]CY-OH; disulfide 4-15), the “Escherichia coli ATCC 25922 MIC” value in data set [1] was 0.25 µg/mL. In data set [2], the “Klebsiella pneumoniae SSI3010 MIC” value is 0.5 µg/mL. Besides, the “Escherichia coli MCR-1 Af45 MIC” value in data set [3] stood at 0.125 µg/mL. In addition, the “Hemolysis at 0.2 g/L” value in data set [4] is reported as below 1%.

`CC[C@H](C)[C@H](NC(=O)[C@@H]1C[C@@H](O)CN1C(=O)[C@@H](N)C(C)C)C(=O)N[C@@H]1C(=O)N[C@@H](Cc2ccc(O)cc2)C(=O)N[C@@H](CO)C(=O)N[C@@H](CC(N)=O)C(=O)N[C@@H](CCCNC(=N)N)C(=O)N[C@@H](CCCNC(N)=O)C(=O)N[C@@H]([C@@H](C)O)C(=O)N[C@H](CCN)C(=O)N[C@@H](CCCCN)C(=O)N[C@@H](CCN)C(=O)N[C@@H](CCN)C(=O)N[C@H](C(=O)N[C@@H](Cc2ccc(O)cc2)C(=O)O)CSSC1(C)C` [Example 27, Val-Hyp-Ile-Pen-Tyr-Ser-Asn-Arg-Cit-Thr-^DDab-Lys-Dab-Dab-Cys-Tyr] (H-V[Hyp]I[Pen]YSNR[Cit]T[dDab]K[Dab][Dab]CY-OH; disulfide 4-15): the “Escherichia coli ATCC 25922 MIC” value in data set [1] was 0.25 µg/mL. Besides, the “Klebsiella pneumoniae SSI3010 MIC” value in data set [2] came to 0.5 µg/mL. In addition, the “Escherichia coli MCR-1 Af45 MIC” value in data set [3] worked out at 0.25 µg/mL. Moreover, the “Hemolysis at 0.2 g/L” value in data set [4] is below 1%.

As to `CC[C@H](C)[C@H](NC(=O)[C@@H]1C[C@@H](O)CN1C(=O)[C@@H](N)C(C)C)C(=O)N[C@@H]1C(=O)N[C@@H](Cc2ccc(O)cc2)C(=O)N[C@@H](CO)C(=O)N[C@@H](CC(N)=O)C(=O)N[C@@H](CCCNC(=N)N)C(=O)N[C@@H](CC(N)=O)C(=O)N[C@@H]([C@@H](C)O)C(=O)N[C@H](CCN)C(=O)N[C@@H](CCCCN)C(=O)N[C@@H](CCN)C(=O)N[C@@H](CCN)C(=O)N[C@H](C(=O)N[C@@H](Cc2ccc(O)cc2)C(=O)O)CSSC1(C)C` [Example 28, Val-Hyp-Ile-Pen-Tyr-Ser-Asn-Arg-Asn-Thr-^DDab-Lys-Dab-Dab-Cys-Tyr] (H-V[Hyp]I[Pen]YSNRNT[dDab]K[Dab][Dab]CY-OH; disulfide 4-15), the “Escherichia coli ATCC 25922 MIC” value in data set [1] is 0.25 µg/mL. Besides, in data set [2], the “Klebsiella pneumoniae SSI3010 MIC” value was 0.5 µg/mL. Further, in data set [3], the “Escherichia coli MCR-1 Af45 MIC” value stood at 0.25 µg/mL. For the same molecule, in data set [4], the “Hemolysis at 0.2 g/L” value is below 1%.

For the molecule `CC[C@H](C)[C@H](NC(=O)[C@@H]1C[C@@H](O)CN1C(=O)[C@@H](N)C(C)C)C(=O)N[C@@H]1C(=O)N[C@@H](Cc2ccc(O)cc2)C(=O)N[C@@H](CO)C(=O)N[C@@H](CC(N)=O)C(=O)N[C@@H](CCCNC(=N)N)C(=O)N[C@@H](CO)C(=O)N[C@@H]([C@@H](C)O)C(=O)N[C@H](CCN)C(=O)N[C@@H](CCCCN)C(=O)N[C@@H](CCN)C(=O)N[C@@H](CCN)C(=O)N[C@H](C(=O)N[C@@H](Cc2ccc(O)cc2)C(=O)O)CSSC1(C)C` [Example 29, Val-Hyp-Ile-Pen-Tyr-Ser-Asn-Arg-Ser-Thr-^DDab-Lys-Dab-Dab-Cys-Tyr] (H-V[Hyp]I[Pen]YSNRST[dDab]K[Dab][Dab]CY-OH; disulfide 4-15), the “Escherichia coli ATCC 25922 MIC” value in data set [1] came to 0.25 µg/mL. In data set [2], the “Klebsiella pneumoniae SSI3010 MIC” value came out at 0.5 µg/mL. The “Escherichia coli MCR-1 Af45 MIC” value in data set [3] turned out to be 0.125 µg/mL. Besides, in data set [4], the “Hemolysis at 0.2 g/L” value is below 1%.

`CC[C@H](C)[C@H](NC(=O)[C@@H]1C[C@@H](O)CN1C(=O)[C@@H](N)C(C)C)C(=O)N[C@@H]1C(=O)N[C@@H](Cc2ccc(O)cc2)C(=O)N[C@@H](CO)C(=O)N[C@@H](CC(N)=O)C(=O)N[C@@H](CCCNC(=N)N)C(=O)N[C@@H](CCNC(=N)N)C(=O)N[C@@H]([C@@H](C)O)C(=O)N[C@H](CCN)C(=O)N[C@@H](CCCCN)C(=O)N[C@@H](CCN)C(=O)N[C@@H](CCN)C(=O)N[C@H](C(=O)N[C@@H](Cc2ccc(O)cc2)C(=O)O)CSSC1(C)C` [Example 30, Val-Hyp-Ile-Pen-Tyr-Ser-Asn-Arg-Agb-Thr-^DDab-Lys-Dab-Dab-Cys-Tyr] (H-V[Hyp]I[Pen]YSNR[Agb]T[dDab]K[Dab][Dab]CY-OH; disulfide 4-15): the “Escherichia coli ATCC 25922 MIC” value in data set [1] came to 0.125 µg/mL. Also, in data set [2], the “Klebsiella pneumoniae SSI3010 MIC” value amounted to 0.125 µg/mL. The “Escherichia coli MCR-1 Af45 MIC” value in data set [3] was 0.0625 µg/mL. The “Hemolysis at 0.2 g/L” value in data set [4] was below 1%.
